Source: publication PMC12022980, “Rational Design of PROTAC Linkers Featuring Ferrocene as a Molecular Hinge to Enable Dynamic Conformational Changes” (Journal of the American Chemical Society, 2025)

Columns and labels:
[1] = Variable temperature NMR (vt-NMR) of amide protons in CDCl3; type: physicochemical; conditions: CDCl3, 298–328 K
Description: With this premise, we performed NMR studies to quantify the HBD solvent exposure of the amide protons using the HBD Acidity NMR score (ANMR)[47] and variable temperature studies (vt-NMR).[48] To note, although vt-NMR has originally been developed and applied to the study of peptides,[49] it is, together with the ANMR value, a well-established method for studying the intramolecular hydrogen bonding (IMHB) patterns in systems such as PROTACs[10],[12],[18],[26] as well as in ferrocene structures.[29],[50]−[53] […]
Standard NMR experiments were performed at 298 K, while variable-temperature NMR experiments recorded spectra across a temperature range from 298 K to 328 K allowing a sufficient temperature equilibration time (10–15 min) before signal acquisition. All NOESY spectra for conformational analysis as well as the assignment spectra in methanol-d 4 were recorded on a 500 MHz Bruker Avance III equipped with a 5 mm QCI cryogenic probe. NOESY spectra were obtained from a sample at 1.25 mM in CDCl3 and 1.25 mM in methanol-d4, recorded at 298 K, using 16 transients, 1024 points in the direct dimension and 512 points in the indirect dimension, a relaxation delay of 1.5 s, and a mixing time of 700 ms. All other spectra used for signal assignment in CDCl3 were recorded on 500 MHz Bruker Avance NEO with a BBFO SmartProbe. […]

CRBN = molecular target: T1, CRBN (Homo sapiens, UniProt Q96SW2); design: method as in PMID 30826187; conditions: cited from earlier work
T1 construct: endogenous in cells; host or cells: HEK293 (ATCC)
T1 sequence (Q96SW2 whole entry): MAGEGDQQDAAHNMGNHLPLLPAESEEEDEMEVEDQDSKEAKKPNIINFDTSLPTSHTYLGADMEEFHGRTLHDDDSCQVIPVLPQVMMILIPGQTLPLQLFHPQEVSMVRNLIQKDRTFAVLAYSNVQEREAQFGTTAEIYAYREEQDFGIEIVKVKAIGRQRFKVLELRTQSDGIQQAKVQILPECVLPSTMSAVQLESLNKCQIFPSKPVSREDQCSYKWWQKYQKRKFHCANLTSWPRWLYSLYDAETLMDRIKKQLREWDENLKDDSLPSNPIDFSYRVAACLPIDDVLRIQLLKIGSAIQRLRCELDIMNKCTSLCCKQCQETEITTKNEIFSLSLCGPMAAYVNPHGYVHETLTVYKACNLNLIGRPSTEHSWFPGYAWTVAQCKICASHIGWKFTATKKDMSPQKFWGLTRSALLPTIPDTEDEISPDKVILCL

temperature coefficient Δδ/ΔT N(1)-H [1]: −3.52 ppb/K
temperature coefficient Δδ/ΔT N(2)-H [1]: −1.57 ppb/K
SMILES: Cc1ncsc1-c1ccc(CNC(=O)[C@@H]2C[C@@H](O)CN2C(=O)[C@@H](NC(=O)CCCCCOCCOCCCCCC(=O)Nc2cccc3c2C(=O)N(C2CCC(=O)NC2=O)C3=O)C(C)(C)C)cc1 (stereo partly drawn) [14a]
DC50 (CRBN): 200 nM
